# Experimental data as given in US12486266B2, “Crystalline form of JAK inhibitor and application thereof” (Zhuhai United Laboratories CO., LTD., priority 2020, dated 2025).
# Where two headings read alike, the source gives them in different places. Marks after values point to notes of the source that are not given here.
# Assays:
# [1] = tested on: collagen induced arthritis (CIA) in mice; conditions: for Average clinical score / Incidence rate: dosing from day 28
# [2] = tested on: adjuvant induced arthritis (AIA) rat model
# [3] = day 31, 0.3 mg/kg p.o. qd, listed as Dex.
# [4] = day 13, 0.3 mg/kg p.o. qd from day 13
# [5] = day 15, 0.3 mg/kg p.o. qd from day 13
# [6] = day 17, 0.3 mg/kg p.o. qd from day 13
# [7] = day 20, 0.3 mg/kg p.o. qd from day 13
# [8] = day 22, 0.3 mg/kg p.o. qd from day 13
# [9] = day 24, 0.3 mg/kg p.o. qd from day 13
# [10] = day 27, 0.3 mg/kg p.o. qd from day 13
# [11] = day 27, 0.3 mg/kg p.o. qd from day 13, listed as Dexamethasone acetate
# [12] = right hind foot, day 27, 0.3 mg/kg p.o. qd
# [13] = day 15, 30 mg/kg p.o. bid from day 13
# [14] = day 17, 30 mg/kg p.o. bid from day 13
# [15] = day 20, 30 mg/kg p.o. bid from day 13
# [16] = day 22, 30 mg/kg p.o. bid from day 13
# [17] = day 24, 30 mg/kg p.o. bid from day 13
smiles,measurement,setting,value
C[C@@H]1C[C@H]2[C@@H]3CCC4=CC(=O)C=C[C@]4(C)[C@@]3(F)[C@@H](O)C[C@]2(C)[C@@]1(O)C(=O)CO [Dexamethasone],Inhibition rate (clinical score AUC vs control group),[1]; 0.3 mg/kg p.o. qd 14 days,97.3%
same,Inhibition rate (clinical score AUC vs control group),"[1]; 0.3 mg/kg p.o. qd 14 days, listed as Dex.",97.3%
same,AUC ± SEM (area under incidence/clinical score curve),"[1]; administration period, 0.3 mg/kg p.o. qd 14 days",1.38 ± 0.81
same,Average clinical score,"[1]; day 21, 0.3 mg/kg p.o. qd",0.00 ± 0.00
same,Incidence rate,"[1]; day 21, 0.3 mg/kg p.o. qd",0%
same,Average clinical score,"[1]; day 24, 0.3 mg/kg p.o. qd",0.00 ± 0.00
same,Incidence rate,"[1]; day 24, 0.3 mg/kg p.o. qd",0%
same,Average clinical score,"[1]; day 27, 0.3 mg/kg p.o. qd",about 0.3
same,Incidence rate,"[1]; day 27, 0.3 mg/kg p.o. qd",25%
same,Average clinical score,"[1]; day 27, 0.3 mg/kg p.o. qd, listed as Dex.",0.25 ± 0.16
same,Average clinical score,"[1]; day 28, 0.3 mg/kg p.o. qd",0.50 ± 0.27
same,Incidence rate,"[1]; day 28, 0.3 mg/kg p.o. qd",38%
same,Average clinical score,"[1]; day 29, 0.3 mg/kg p.o. qd",0.25 ± 0.16
same,Incidence rate,"[1]; day 29, 0.3 mg/kg p.o. qd",25%
same,Average clinical score,"[1]; day 31, 0.3 mg/kg p.o. qd",0
same,Incidence rate,"[1]; day 31, 0.3 mg/kg p.o. qd",0%
same,Average clinical score,[1]; [3],0.00 ± 0.00
same,Incidence rate,[1]; [3],0%
same,Average clinical score,"[1]; day 34, 0.3 mg/kg p.o. qd",0.00 ± 0.00
same,Incidence rate,"[1]; day 34, 0.3 mg/kg p.o. qd",0%
same,Average clinical score,"[1]; day 36, 0.3 mg/kg p.o. qd",0.00 ± 0.00
same,Incidence rate,"[1]; day 36, 0.3 mg/kg p.o. qd",0%
same,Average clinical score,"[1]; day 38, 0.3 mg/kg p.o. qd",0.00 ± 0.00
same,Incidence rate,"[1]; day 38, 0.3 mg/kg p.o. qd",0%
same,Average clinical score,"[1]; day 41, 0.3 mg/kg p.o. qd",0.00 ± 0.00
same,Incidence rate,"[1]; day 41, 0.3 mg/kg p.o. qd",0%
same,Inhibition rate (total pathological score vs solvent control),[2]; 0.3 mg/kg p.o. qd,72.5%
same,Clinical score (mean),[2]; [4],6.0
same,Foot volume (mean),[2]; [4],1.9 mL
same,Clinical score (mean),[2]; [5],5.3*
same,Foot volume (mean),[2]; [5],1.7**** mL
same,Clinical score (mean),[2]; [6],4.1****
same,Foot volume (mean),[2]; [6],1.4**** mL
same,Clinical score (mean),[2]; [7],3.4****
same,Foot volume (mean),[2]; [7],1.3**** mL
same,Clinical score (mean),[2]; [8],3.1****
same,Foot volume (mean),[2]; [8],1.3**** mL
same,Clinical score (mean),[2]; [9],3.1****
same,Foot volume (mean),[2]; [9],1.2**** mL
same,Clinical score (mean),[2]; [10],2.7
same,Foot volume (mean),[2]; [10],1.21 mL
same,Clinical score (mean),[2]; [11],2.9****
same,Foot volume (mean),[2]; [11],1.2**** mL
same,Pathological score: Bone resorption,[2]; [12],0.6 ± 0.2
same,Pathological score: Cartilage injury,[2]; [12],0.6 ± 0.2
same,Pathological score: Inflammatory cell infiltration,[2]; [12],1.8 ± 0.2
same,Pathological score: Pannus formation,[2]; [12],1.4 ± 0.3
same,Pathological score: Total score,[2]; [12],4.4±0.8
same,Pathological score: Total score,"[2]; right hind foot, day 27, 0.3 mg/kg p.o. qd, listed as Dexamethasone acetate",4.4 ± 0.8
O=C(Nc1nc2cccc(-c3ccc(CN4CCS(=O)(=O)CC4)cc3)n2n1)C1CC1 [Filgotinib],Incidence rate,"[1]; day 21, 15 mg/kg p.o. bid",0%
same,Incidence rate,"[1]; day 24, 15 mg/kg p.o. bid",0%
same,Incidence rate,"[1]; day 27, 15 mg/kg p.o. bid",25%
same,Incidence rate,"[1]; day 29, 15 mg/kg p.o. bid",50%
same,Incidence rate,"[1]; day 31, 15 mg/kg p.o. bid",75%
same,Incidence rate,"[1]; day 34, 15 mg/kg p.o. bid",88%
same,Incidence rate,"[1]; day 36, 15 mg/kg p.o. bid",88%
same,Incidence rate,"[1]; day 38, 15 mg/kg p.o. bid",88%
same,Incidence rate,"[1]; day 41, 15 mg/kg p.o. bid",100%
same,Clinical score (mean),[2]; [13],6.6
same,Foot volume (mean),[2]; [13],2.2 mL
same,Clinical score (mean),[2]; [14],6.3
same,Foot volume (mean),[2]; [14],2.0** mL
same,Clinical score (mean),[2]; [15],5.8**
same,Foot volume (mean),[2]; [15],1.9**** mL
same,Clinical score (mean),[2]; [16],5.5***
same,Foot volume (mean),[2]; [16],2.0**** mL
same,Clinical score (mean),[2]; [17],5.4****
same,Foot volume (mean),[2]; [17],2.0**** mL
same,Foot volume (mean),"[2]; day 27, 30 mg/kg p.o. bid from day 13",1.9**** mL
same,Pathological score: Bone resorption,"[2]; right hind foot, day 27, 30 mg/kg p.o. bid",3.6 ± 0.2
